# Literature values in patent publication US20130142871A1, “ORAL DOSAGE FORM OF DEFERASIROX” (Ratiopharm GmbH, priority 2010, published 2013).
# Conditions: see WO 2007/045445, page 2, third paragraph
structure (smiles),measurement,value
"O=C(O)c1ccc(-n2nc(-c3ccccc3O)nc2-c2ccccc2O)cc1 [Deferasirox, 4-[(3Z,5E)-3,5-bis(6-oxo-1-cyclohexa-2,4-dienylidene)-1,2,4-triazolidine-1-yl]benzoic acid]",solubility in water,poorly soluble in water
